Experimental data as given in patent US20170218375A1, “MORPHOLINOS, MORPHOLINO UPREGULATING, AND ASSOCIATED METHODS” (University of Utah Research Foundation, priority 2011, published 2017).
{Dendrimer} = dendrimer conjugate (vivo-morpholino)

What was measured:
[1] = tested on: suture-induced corneal neovascularization and lymphangiogenesis; test: Mouse corneal suture model (CD31 and LYVE-1 stained cornea flatmount); type: in vivo; settings: for suppression of suture-induced neovascularization: CD31; for suppression of lymphangiogenesis: LYVE-1
Protocol: In another aspect, a corneal suture model can be used to evaluate angiogenesis. For the one week subarm, each morpholino or DPBS was injected subconjunctivally one day prior to and four days after suturing; the corneas were harvested at seven days post suturing. For the two week subarm, each morpholino or DPBS was injected subconjunctivally one day prior and four, seven and ten days after suturing; the corneas were harvested at fourteen days. CD31 and LYVE-1 were used as markers of neovascularization and lymphangiogenesis, respectively. FIGS. 10 and 11 representative images of CD31 stained corneas at one week and LYVE-1 stained corneas at two weeks, respectively.
Under anesthesia, 15 μl of moVEGFR2_MOe13 (40 ng/μl), STD_MO (40 ng/μl) or DPBS was injected subconjunctivally into two different places one day prior to the placement of 2 symmetrical 11-0 nylon sutures, followed by re-injection at four days after suture placement. Eyes were harvested 7 days after suture placement. In a second group, 15 μl of moVEGFR2_MOe13 (40 ng/μl), STD_MO (40 ng/μl) or DPBS was injected subconjunctivally into two different places one day prior to the placement of 2 symmetrical 11-0 nylon sutures. Subconjunctival injections were repeated at four, seven and ten days after suture placement. Eyes were harvested 14 days after suture placement. The corneas were fixed in acetone at room temperature for 20 minutes. After 4 washes in PBST (0.1% Tween20/PBS), the corneas were incubated in 3% BSA/PBS at 4° C. for 3 days. To detect CD31 and LYVE1, corneas were incubated in 3% BSA/PBS with FITC-conjugated rat anti-CD31 antibody (553372, 1:500, BD Biosciences, San Jose, Calif.) or rabbit anti-LYVE-1 (ab14917, 1:200, Abcam, Cambridge, Mass.) overnight at 4° C. After 3 washes in PBST, the corneas were incubated in 3% BSA/PBS with Alexa Fluor® 546 conjugated goat anti-rabbit IgG (A11071, 1:2000, Invitrogen Corporation, Carlsbad, Calif.) for one hour at room temperature. After 4 washes in PBST, corneas were mounted on slide glass with Fluoro-gel (Electron Microscopy Sciences, Hatfield, Pa.). Fluorescence was observed by fluorescence microscope (Carl Zeiss MicroImaging, Inc., Thornwood, N.Y.). The data for each suture was calculated by ImageJ separately. Areas where sutures had fallen out were not included in the final calculations.

mbVEGFR2 mRNA = test: RT-PCR of mbVEGFR2 mRNA in mouse MS-1 cell line; type: cell-based
Text: Because VEGFR2_MOe13 decreases mbVEGFR2 and increases sVEGFR2, it is expected that VEGFR2_MOe13 can inhibit angiogenesis and lymphangiogenesis in vivo. To study the effect of VEGFR2_MOe13 in animal models, moVEGFR2_MOe13 was created that targets the exon13-intron13 junction of the mouse VEGFR2 gene. By RT-PCR analysis, it was found moVEGFR2_MOe13 increased sVEGFR2 mRNA and decreased mbVEGFR2 mRNA in the mouse MS-1 cell line (FIG. 7A). […] FIGS. 7(f, g) show the mean area of corneal neovascularization and lymphangiogenesis respectively (n=13-16). Risk factors (p-value) were calculated by two-tail student's t-test (*: p<0.05, **p<0.01, ***p<0.001). Error bar is ±s.e.m.
Each morpholino oligomer was purchased from Gene Tools (Philomath, Oreg.). The sequences of each morpholino oligomer and primers for PCR are listed in supplemental Table. […] The cells were washed three times and fluorescence was detected by a FACScan Analyzer (BD Biosciences, San Jose, Calif.). […]
cDNAs were synthesized from 400 ng total RNA using Omniscript RT kit (Qiagen, Valencia, Calif.) and Oligo-dT primer(dT20) according to the manufacturer's instructions. Real-time PCR was performed using QuantiTect SYBR Green PCR Kit (Qiagen, Valencia, Calif.) and 1 μl of cDNA. […]

For “5′-cacccagggatgcctccatacCTAG-3′ (antisense CACCCAGGGATGCCTCCATACCTAG; all phosphorodiamidate morpholino (PMO), 3' {Dendrimer}) [moVEGFR2_MOe13, morpholino that targets the exon13-intron13 junction of the mouse VEGFR2 gene; in vivo conjugated with a dendrimer (vivo-morpholino)]”, the “suppression of suture-induced neovascularization” value ([1]; 1 week, 15 μl of 40 ng/μl subconjunctivally one day prior to and four days after suturing, compared to DPBS, p<0.001) was 52.2%, the suppression of lymphangiogenesis ([1]; 2 weeks after suture placement, compared to DPBS, p<0.05) was 27.8% and the “suppression of suture-induced neovascularization” value ([1]; 2 weeks, 15 μl of 40 ng/μl subconjunctivally one day prior and four, seven and ten days after suturing, compared to DPBS, p<0.05) was 29.6%. The suppression of lymphangiogenesis ([1]; one week after suture placement) was “did not suppress” and the “mbVEGFR2 mRNA by RT-PCR” value (mbVEGFR2 mRNA) was “decreased”.
